Laboratory results as given in patent US10294202B2, “Pyrrolidinones as herbicides” (FMC Corporation, priority 2013, dated 2019).

What was measured:
soybean = experiment: Test C pre-/postemergence herbicide test; assay type: in vivo, Glycine max
Summary of the method: (§1)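 Greenhouse pots; formulation = non-phytotoxic solvent mix + surfactant. PRE onto seeds in loam:sand; POST at 1–4 leaves (2–18 cm) in peat moss/vermiculite medium. Read-out: visual % control vs untreated, day 13–15.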

pigweed = experiment: Test A pre-/postemergence herbicide test; assay type: in vivo, Amaranthus retroflexus
Summary of the method: (§2)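 Greenhouse pot test with pre- and postemergence application of surfactant-containing solvent formulations. Postemergence plants were 2–10 cm, one- to two-leaf stage. Response scored visually after ~10 days, 0 (no effect) to 100 (complete control).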

nutsedge, yellow = experiment: Test C pre-/postemergence herbicide test; assay type: in vivo, Cyperus esculentus
Summary of the method: as §1

corn [1] = experiment: Test C pre-/postemergence herbicide test; assay type: in vivo, Zea mays
Summary of the method: as §1

ducksalad = experiment: Test B flooded paddy test; assay type: in vivo, Heteranthera limosa; details: 250 g ai/ha, Flood; scale of 0 to 100 where 0 is no effect and 100 is complete control
Summary of the method: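 First, plants reach the 2-leaf stage; next, pots are flooded to 3 cm and compound is delivered into the water; finally, after 13 to 15 greenhouse days at constant depth, injury is graded visually from 0 to 100 against controls.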

blackgrass = experiment: Test C pre-/postemergence herbicide test; assay type: in vivo, Alopecurus myosuroides
Summary of the method: as §1

morningglory = experiment: Test C pre-/postemergence herbicide test; assay type: in vivo, Ipomoea coccinea
Summary of the method: as §1

lambsquarters = experiment: Test C pre-/postemergence herbicide test; assay type: in vivo, Chenopodium album
Summary of the method: as §1

barnyardgrass = experiment: Test A pre-/postemergence herbicide test; assay type: in vivo, Echinochloa crus-galli
Summary of the method: as §2

corn [2] = experiment: Test A pre-/postemergence herbicide test; assay type: in vivo, Zea mays
Summary of the method: as §2

[3] = Postemergence, 31 g ai/ha, scale 0 (no effect) to 100 (complete control)
[4] = Postemergence, 62 g ai/ha, scale 0 to 100 (0 no effect, 100 complete control)
[5] = Postemergence, 125 g ai/ha, scale 0 to 100 (0 no effect, 100 complete control)
[6] = Postemergence, 250 g ai/ha, scale 0 to 100 (0 no effect, 100 complete control)
[7] = Preemergence, 31 g ai/ha, scale 0 to 100, 0 is no effect and 100 is complete control
[8] = Preemergence, 62 g ai/ha, scale 0 to 100
[9] = Preemergence, 125 g ai/ha, scale 0 to 100 (0 no effect, 100 complete control)
[10] = Postemergence, 125 g ai/ha, 0 to 100 scale, 0 no effect, 100 complete control
[11] = Postemergence, 500 g ai/ha, 0 to 100 scale (0 no effect, 100 complete control)
[12] = Preemergence, 125 g ai/ha, visual rating on 0 to 100 scale (0 no effect, 100 complete control)
[13] = preemergence, 500 g ai/ha, 0 to 100 scale
[14] = Postemergence, 1000 g ai/ha, 0 to 100 scale (0 no effect, 100 complete control)
[15] = Preemergence, 1000 g ai/ha, visual rating on 0 to 100 scale (0 no effect, 100 complete control), approx. 10 days
[16] = Preemergence, 31 g ai/ha, scale 0 to 100 (0 no effect, 100 complete control)
[17] = Preemergence, 250 g ai/ha, scale 0 to 100 (0 no effect, 100 complete control)

In the case of `O=C1NCC(c2ccccc2)C1C(=O)Nc1ccccc1F` (racemic) [Compound 81], the “Plant response rating, Soybean” value (soybean; [3]) is reported as 0, the “Plant response rating, Soybean” value (soybean; [4]) is reported as 3 and the “Plant response rating, Soybean” value (soybean; [5]) is reported as 3. For the same compound, the “Plant response rating, Soybean” value (soybean; [6]) was 8, the “Soybean plant response rating” value (soybean; [7]) was 0 and the “Plant response rating, Soybean” value (soybean; [8]) was 0. The “Plant response rating, Soybean” value (soybean; [9]) was 0, the “Plant response rating (scale of 0 to 100), Soybean” value (soybean; Preemergence, 250 g ai/ha) was 0 and the “Plant response rating, Pigweed” value (pigweed; [10]) was 0. The “Plant response rating, Pigweed” value (pigweed; [11]) was 0, the “Pigweed plant response rating” value (pigweed; [12]) was 0 and the “Plant response rating, Pigweed” value (pigweed; [13]) was 0. For the same compound, the “Plant response rating, Nutsedge, Yellow” value (nutsedge, yellow; [3]) was 0, the “Plant response rating, Nutsedge, Yellow” value (nutsedge, yellow; [4]) was 0 and the “Plant response rating, Nutsedge, Yellow” value (nutsedge, yellow; [5]) was 0. For the same compound, the “Plant response rating, Nutsedge, Yellow” value (nutsedge, yellow; [6]) was 0, the “Nutsedge, Yellow plant response rating” value (nutsedge, yellow; [7]) was 0 and the “Plant response rating, Nutsedge, Yellow” value (nutsedge, yellow; [8]) was 0. For the same compound, the “Plant response rating, Nutsedge, Yellow” value (nutsedge, yellow; [9]) was 0, the “Plant response rating (scale of 0 to 100), Nutsedge, Yellow” value (nutsedge, yellow; Preemergence, 250 g ai/ha) was 0 and the “Plant response rating, Corn” value (corn [1]; [3]) was 0. The “Plant response rating, Corn” value (corn [1]; [4]) was 0, the “Plant response rating, Corn” value (corn [1]; [5]) was 0 and the “Plant response rating, Corn” value (corn [1]; [6]) was 0. For the same compound, the “Corn plant response rating” value (corn [1]; [7]) was 0, the “Plant response rating, Corn” value (corn [1]; [8]) was 0 and the “Plant response rating, Corn” value (corn [1]; [9]) was 0. For the same compound, the “Plant response rating (scale of 0 to 100), Corn” value (corn [1]; Preemergence, 250 g ai/ha) was 0, the “Plant response rating, Ducksalad” value (ducksalad) was 70 and the “Plant response rating, Blackgrass” value (blackgrass; [3]) was 0. The “Plant response rating, Blackgrass” value (blackgrass; [4]) was 0, the “Plant response rating, Blackgrass” value (blackgrass; [5]) was 0 and the “Plant response rating, Blackgrass” value (blackgrass; [6]) was 0. For the same compound, the “Blackgrass plant response rating” value (blackgrass; [7]) was 0, the “Plant response rating, Blackgrass” value (blackgrass; [8]) was 0 and the “Plant response rating, Blackgrass” value (blackgrass; [9]) was 0. The “Plant response rating (scale of 0 to 100), Blackgrass” value (blackgrass; Preemergence, 250 g ai/ha) was 0, the “Plant response rating, Morningglory” value (morningglory; [3]) was 0 and the “Plant response rating, Morningglory” value (morningglory; [4]) was 0. For the same compound, the “Plant response rating, Morningglory” value (morningglory; [5]) was 0, the “Plant response rating, Morningglory” value (morningglory; [6]) was 0 and the “Morningglory plant response rating” value (morningglory; [7]) was 0. For the same compound, the “Plant response rating, Morningglory” value (morningglory; [8]) was 0, the “Plant response rating, Morningglory” value (morningglory; [9]) was 0 and the “Plant response rating (scale of 0 to 100), Morningglory” value (morningglory; Preemergence, 250 g ai/ha) was 0. The “Plant response rating, Lambsquarters” value (lambsquarters; [3]) was 0, the “Plant response rating, Lambsquarters” value (lambsquarters; [4]) was 0 and the “Plant response rating, Lambsquarters” value (lambsquarters; [5]) was 0. The “Plant response rating, Lambsquarters” value (lambsquarters; [6]) was 3, the “Lambsquarters plant response rating” value (lambsquarters; [7]) was 0 and the “Plant response rating, Lambsquarters” value (lambsquarters; [8]) was 0. The “Plant response rating, Lambsquarters” value (lambsquarters; [9]) was 0, the “Plant response rating (scale of 0 to 100), Lambsquarters” value (lambsquarters; Preemergence, 250 g ai/ha) was 27 and the “Plant response rating, Barnyardgrass” value (barnyardgrass; [10]) was 30. For the same compound, the “Plant response rating, Barnyardgrass” value (barnyardgrass; [11]) was 80, the “Barnyardgrass plant response rating” value (barnyardgrass; [12]) was 40 and the “Plant response rating, Barnyardgrass” value (barnyardgrass; preemergence, 500 g ai/ha, 0 to 100 scale (0 no effect, 100 complete control)) was 80. The “Plant response rating, Corn” value (corn [2]; [10]) was 0, the “Plant response rating, Corn” value (corn [2]; [11]) was 0 and the “Corn plant response rating” value (corn [2]; [12]) was 0. The “Plant response rating, Corn” value (corn [2]; [13]) was 0.

`O=C1NCC(c2cc(F)c(F)c(F)c2)C1C(=O)Nc1ccccc1C(F)(F)F` (racemic) [Compound 33] was tested, and the “Plant response rating, Soybean” value (soybean; [9]) was 0, the “Plant response rating, Pigweed” value (pigweed; [14]) was 0 and the “Plant response rating, Pigweed” value (pigweed; [15]) was 0. The “Plant response rating, Nutsedge, Yellow” value (nutsedge, yellow; [8]) was 10, the “Corn plant response rating” value (corn [1]; [16]) was 0 and the “Plant response rating, Corn” value (corn [1]; [8]) was 10. For the same compound, the “Plant response rating, Corn” value (corn [1]; [9]) was 20, the “Plant response rating, Corn” value (corn [1]; [17]) was 30 and the “Plant response rating, Ducksalad” value (ducksalad) was 100. For the same compound, the “Blackgrass plant response rating” value (blackgrass; [16]) was 0, the “Plant response rating, Blackgrass” value (blackgrass; [8]) was 0 and the “Plant response rating, Blackgrass” value (blackgrass; [9]) was 0. For the same compound, the “Plant response rating, Blackgrass” value (blackgrass; [17]) was 5, the “Plant response rating, Morningglory” value (morningglory; [8]) was 0 and the “Plant response rating, Morningglory” value (morningglory; [9]) was 0. The “Plant response rating, Lambsquarters” value (lambsquarters; [8]) was 0, the “Plant response rating, Lambsquarters” value (lambsquarters; [9]) was 25 and the “Plant response rating, Barnyardgrass” value (barnyardgrass; [14]) was 90. For the same compound, the “Plant response rating, Barnyardgrass” value (barnyardgrass; [15]) was 90, the “Plant response rating, Corn” value (corn [2]; [14]) was 40 and the “Plant response rating, Corn” value (corn [2]; [15]) was 0.
